Patent publication US11427567B2, “Imidazolyl pyrimidinylamine compounds as CDK2 inhibitors” (Incyte Corporation, priority 2019, dated 2022)

Biological target: CDK2/Cyclin E1 (Homo sapiens (Human), UniProt P24941)
Assay: CDK2/Cyclin E1 HTRF enzyme activity assay (Example A)
Format: biochemical
Details: 1 mM ATP
Experimental: Assays were conducted in white 384-well polystyrene plates in a final reaction volume of 8 μL. […] HTRF signals were read after 1 hour at room temperature on a PHERAstar FS plate reader (BMG Labtech). Data was analyzed with IDBS XLFit and GraphPad Prism 5.0 software using a three or four parameter dose response curve to determine IC50 for each compound.

Row | Structure (SMILES) | IC50
1 | CS(=O)(=O)N1CCC(Nc2ncc(C(F)(F)F)c(-c3cn(-c4ccc(CN5CC[C@H](O)C5)cc4Cl)cn3)n2)CC1 [Example 206, (S)-1-(3 -Chloro-4-(4-(2-((1-(methyl-sulfonyl)piperidin-4-yl)amino)-5-(trifluoromethyl)-pyrimidin-4-yl)-1H-imidazol-1-yl)benzyl)-pyrrolidin-3-ol] | ≤ 50 nM
2 | Cc1nc(-c2nc(NC3CCN(S(C)(=O)=O)CC3)ncc2C(F)(F)F)cn1-c1ccc(CNC2CC2)cc1F [Example 356, 4-(1-(4-((Cyclopropylamino)methyl)-2-fluorophenyl)-2-methyl-1H-imidazol-4-yl)-N-(1-(methylsulfonyl)piperidin-4-yl)-5-(trifluoromethyl)pyrimidin-2-amine] | ≤ 50 nM
3 | CCN1CCN(Cc2cc(F)c(-n3cnc(-c4nc(N[C@@H]5CCN(S(C)(=O)=O)C[C@H]5F)ncc4C(F)(F)F)c3)c(Cl)c2)CC1 [Example 403, 4-(1-(2-Chloro-4-((4-ethylpiperazin-1-yl)methyl)-6-fluorophenyl)-1H-imidazol-4-yl)-N-((3R,4R)-3-fluoro-1-(methylsulfonyl)piperidin-4-yl)-5-(trifluoromethyl)pyrimidin-2-amine] | ≤ 50 nM
4 | Cc1nc(-c2nc(NC3CCN(S(C)(=O)=O)CC3)ncc2C(F)(F)F)cn1-c1ccc(OC[C@H]2CCCN2C)cc1F [Example 426, (R)-4-(1-(2-Fluoro-4-((1-methylpyrrolidin-2-yl)methoxy)phenyl)-2-methyl-1H-imidazol-4-yl)-N-(1-(methylsulfonyl)piperidin-4-yl)-5-(trifluoromethyl)pyrimidin-2-amine] | ≤ 50 nM
5 | CC(C)(O)Cn1cnc(-c2nc(NC3CCN(S(=O)(=O)c4ccccn4)CC3)ncc2C(F)(F)F)c1 [Example 338, 2-Methyl-1-(4-(2-((1-(pyridin-2-ylsulfonyl)piperidin-4-yl)amino)-5-(trifluoromethyl)pyrimidin-4-yl)-1H-imidazol-1-yl)propan-2-ol] | ≤ 50 nM
6 | CCC(O)c1cccc(-n2cnc(-c3nc(NC4CCN(S(C)(=O)=O)CC4)ncc3C(F)(F)F)c2)c1Cl (stereo not drawn) [Example 85, 1-(2-Chloro-3-(4-(2-((1-(methylsulfonyl)piperidin-4-yl)amino)-5-(trifluoromethyl)pyrimidin-4-yl)-1H-imidazol-1-yl)phenyl)propan-1-ol] | ≤ 50 nM
7 | Cc1ccc(-n2cnc(-c3nc(NC4CCN(S(=O)(=O)c5cnn(C)c5C)CC4)ncc3C(F)(F)F)c2)c(C#N)n1 [Example 90, 3-(4-(2-((1-((1,5-Dimethyl-1H-pyrazol-4-yl)sulfonyl)piperidin-4-yl)amino)-5-(trifluoromethyl)pyrimidin-4-yl)-1H-imidazol-1-yl)-6-methylpicolinonitrile] | ≤ 50 nM
8 | CCN(C)CCCc1ccc(-n2cc(-c3nc(NC4CCN(S(C)(=O)=O)CC4)ncc3C(F)(F)F)nc2C)c(F)c1 [Example 460, 4-(1-(4-(3-(Ethyl(methyl)amino)propyl)-2-fluorophenyl)-2-methyl-1H-imidazol-4-yl)-N-(1-(methylsulfonyl)piperidin-4-yl)-5-(trifluoromethyl)pyrimidin-2-amine] | ≤ 50 nM
9 | CCNCc1ccc(-n2cnc(-c3nc(NC4CCN(S(C)(=O)=O)CC4)ncc3C(F)(F)F)c2)c(C#N)c1 [Example 341, 5-((Ethylamino)methyl)-2-(4-(2-((1-(methylsulfonyl)piperidin-yl)amino)-5-(trifluoromethyl)pyrimidin-4-yl)-1H-imidazol-1-yl)benzonitrile] | ≤ 50 nM
10 | CC(C)NCc1cc(F)c(-n2cnc(-c3nc(N[C@@H]4CCN(S(C)(=O)=O)C[C@H]4F)ncc3C(F)(F)F)c2)c(F)c1 [Example 391, 4-(1-(2,6-Difluoro-4-((isopropylamino)methyl)phenyl)-1H-imidazol-4-yl)-N-((3R,4R)-3-fluoro-1-(methylsulfonyl)piperidin-4-yl)-5-(trifluoromethyl)pyrimidin-2-amine] | ≤ 50 nM
11 | CS(=O)(=O)N1CC[C@H](Nc2ncc(C(F)(F)F)c(-c3cn(-c4cccnc4C(F)(F)F)cn3)n2)[C@H](F)C1 [Example 48, N-((3R,4S)-3-Fluoro-1-(methylsulfonyl)piperidin-4-yl)-5-(trifluoromethyl)-4-(1-(2-(trifluoromethyl)pyridin-3-yl)-1H-imidazol-4-yl)pyrimidin-2-amine] | ≤ 50 nM
12 | CC(c1ccc(-n2cnc(-c3nc(NC4CCN(S(C)(=O)=O)CC4)ncc3C(F)(F)F)c2)c(Cl)c1)N1CCC1 (stereo not drawn) [Example 274, 4-(1-(4-(1-(Azetidin-1-yl)ethyl)-2-chlorophenyl)-1H-imidazol-4-yl)-N-(1-(methylsulfonyl)piperidin-4-yl)-5-(trifluoromethyl)pyrimidin-2-amine] | ≤ 50 nM

Next, values leading:

Row | IC50 | Structure (SMILES)
13 | ≤ 50 nM | CS(=O)(=O)N1CCC(Nc2ncc(C(F)(F)F)c(-c3cn(-c4ccc(CO)cc4Cl)cn3)n2)CC1 [Example 231, (3-Chloro-4-(4-(2-((1-(methylsulfonyl)piperidin-4-yl)amino)-5-(trifluoromethyl)pyrimidin-4-yl)-1H-imidazol-1-yl)phenyl)methanol]
14 | ≤ 50 nM | Cc1nc(-c2nc(NC3CCN(S(C)(=O)=O)CC3)ncc2C(F)(F)F)cn1-c1ccc(N2CCC[C@H](N(C)C)C2)cc1F [Example 106, (S)-4-(1-(4-(3-(Dimethylamino)-piperidin-1-yl)-2-fluorophenyl)-2-methyl-1H-imidazol-4-yl)-N-(1-(methyl-sulfonyl)piperidin-4-yl)-5-(trifluoro-methyl)pyrimidin-2-amine]
15 | ≤ 50 nM | CS(=O)(=O)N1CC[C@@H](Nc2ncc(C(F)(F)F)c(-c3cn(-c4ccc(CN5CCC5)cc4Cl)cn3)n2)[C@H](F)C1 [Example 399, 4-(1-(4-(Azetidin-1-ylmethyl)-2-chlorophenyl)-1H-imidazol-4-yl)-N-((3R,4R)-3-fluoro-1-(methylsulfonyl)piperidin-4-yl)-5-(trifluoromethyl)pyrimidin-2-amine]
16 | ≤ 50 nM | Cc1ccc(-n2cnc(-c3nc(NC4CCN(S(C)(=O)=O)CC4)ncc3C(F)(F)F)c2)c(C#N)c1Cl [Example 62, 2-Chloro-3-methyl-6-(4-(2-((1-(methylsulfonyl)piperidin-4-yl)amino)-5-(trifluoromethyl)pyrimidin-4-yl)-1H-imidazol-1-yl)benzonitrile]
17 | ≤ 50 nM | Cc1cc(CN(C)C)ccc1-n1cnc(-c2nc(NC3CCN(S(C)(=O)=O)CC3)ncc2C(F)(F)F)c1 [Example 271, 4-(1-(4-((Dimethylamino)methyl)-2-methylphenyl)-1H-imidazol-4-yl)-N-(1-(methylsulfonyl)piperidin-4-yl)-5-(trifluoromethyl)pyrimidin-2-amine]
18 | ≤ 50 nM | CC(C#N)Oc1ccc(-n2cnc(-c3nc(NC4CCN(S(C)(=O)=O)CC4)ncc3C(F)(F)F)c2)c(C(F)(F)F)n1 (stereo not drawn) [Example 74, 2-((5-(4-(2-((1-(Methylsulfonyl)piperidin-4-yl)amino)-5-(trifluoromethyl)pyrimidin-4-yl)-1H-imidazol-1-yl)-6-(trifluoromethyl)pyridin-2-yl)oxy)propanenitrile]
19 | ≤ 50 nM | Cn1cnc(S(=O)(=O)N2CCC(Nc3ncc(C(F)(F)F)c(-c4ncn(C)c4Cl)n3)CC2)c1 [Example 20, 4-(5-Chloro-1-methyl-1H-imidazol-4-yl)-N-(1-((1-methyl-1H-imidazol-4-yl)sulfonyl)piperidin-4-yl)-5-(trifluoromethyl)pyrimidin-2-amine]
20 | ≤ 50 nM | CS(=O)(=O)N1CC[C@H](Nc2ncc(C(F)(F)F)c(-c3cn(-c4cccnc4C(F)F)cn3)n2)[C@H](F)C1 [Example 50, 4-(1-(2-(Difluoromethyl)pyridin-3-yl)-1H-imidazol-4-yl)-N-((3R,4S)-3-fluoro-1-(methylsulfonyl)piperidin-4-yl)-5-(trifluoromethyl)pyrimidin-2-amine]
21 | ≤ 50 nM | CCNC(C)c1cccc(-n2cnc(-c3nc(NC4CCN(S(C)(=O)=O)CC4)ncc3C(F)(F)F)c2)c1Cl (stereo not drawn) [Example 375, 4-(1-(2-Chloro-3-(1-(ethylamino)ethyl)phenyl)-1H-imidazol-4-yl)-N-(1-(methylsulfonyl)piperidin-4-yl)-5-(trifluoromethyl)pyrimidin-2-amine]
22 | ≤ 50 nM | COc1ccc(-n2cnc(-c3nc(NC4CCN(S(C)(=O)=O)CC4)ncc3C(F)(F)F)c2)c(C(F)F)n1 [Example 75, 4-(1-(2-(Difluoromethyl)-6-methoxypyridin-3-yl)-1H-imidazol-4-yl)-N-(1-(methylsulfonyl)piperidin-4-yl)-5-(trifluoromethyl)pyrimidin-2-amine]
23 | ≤ 50 nM | CNCCN(C)c1ccc(-n2cnc(-c3nc(NC4CCN(S(C)(=O)=O)CC4)ncc3C(F)(F)F)c2)c(C#N)c1 [Example 431, 5-(Methyl(2-(methylamino)ethyl)amino)-2-(4-(2-((1-(methylsulfonyl)piperidin-4-yl)amino)-5-(trifluoromethyl)pyrimidin-4-yl)-1H-imidazol-1-yl)benzonitrile]
24 | ≤ 50 nM | CS(=O)(=O)N1CCC(Nc2ncc(C(F)(F)F)c(-c3cn(-c4ccc(CN5CC6CC5CO6)cc4Cl)cn3)n2)CC1 (stereo not drawn) [Example 213]
25 | ≤ 50 nM | Cn1cc(S(=O)(=O)N2CCC(Nc3ncc(C(F)(F)F)c(-c4cn(CC(F)F)cn4)n3)CC2)cn1 [Example 334, 4-(1-(2,2-Difluoroethyl)-1H-imidazol-4-yl)-N-(1-((1-methyl-1H-pyrazol-4-yl)sulfonyl)piperidin-4-yl)-5-(trifluoromethyl)pyrimidin-2-amine]
26 | ≤ 50 nM | CS(=O)(=O)N1CCC(Nc2ncc(C(F)(F)F)c(-c3cn(-c4ccc(CCN5CCCCC5)cc4C#N)cn3)n2)CC1 [Example 458, 2-(4-(2-((1-(Methylsulfonyl)piperidin-4-yl)amino)-5-(trifluoromethyl)pyrimidin-4-yl)-1H-imidazol-1-yl)-5-(2-(piperidin-1-yl)ethyl)benzonitrile]
27 | ≤ 50 nM | CC(=O)N(C)Cc1ccc(-n2cnc(-c3nc(NC4CCN(S(C)(=O)=O)CC4)ncc3C(F)(F)F)c2)c(Cl)c1 [Example 174, N-(3-Chloro-4-(4-(2-((1-(methylsulfonyl)piperidin-4-yl)amino)-5-(trifluoromethyl)pyrimidin-4-yl)-1H-imidazol-1-yl)benzyl)-N-methylacetamide]
